{"source": "patent US11466024B2", "about": "“Bicylic compound acting as an inhibitor” (CHIA TAI TIANQING PHARMACEUTICAL GROUP CO., LTD., priority 2017, dated 2022)", "target": "hERG potassium channel (Homo sapiens, UniProt Q12809)", "sequence (Q12809 whole entry)": "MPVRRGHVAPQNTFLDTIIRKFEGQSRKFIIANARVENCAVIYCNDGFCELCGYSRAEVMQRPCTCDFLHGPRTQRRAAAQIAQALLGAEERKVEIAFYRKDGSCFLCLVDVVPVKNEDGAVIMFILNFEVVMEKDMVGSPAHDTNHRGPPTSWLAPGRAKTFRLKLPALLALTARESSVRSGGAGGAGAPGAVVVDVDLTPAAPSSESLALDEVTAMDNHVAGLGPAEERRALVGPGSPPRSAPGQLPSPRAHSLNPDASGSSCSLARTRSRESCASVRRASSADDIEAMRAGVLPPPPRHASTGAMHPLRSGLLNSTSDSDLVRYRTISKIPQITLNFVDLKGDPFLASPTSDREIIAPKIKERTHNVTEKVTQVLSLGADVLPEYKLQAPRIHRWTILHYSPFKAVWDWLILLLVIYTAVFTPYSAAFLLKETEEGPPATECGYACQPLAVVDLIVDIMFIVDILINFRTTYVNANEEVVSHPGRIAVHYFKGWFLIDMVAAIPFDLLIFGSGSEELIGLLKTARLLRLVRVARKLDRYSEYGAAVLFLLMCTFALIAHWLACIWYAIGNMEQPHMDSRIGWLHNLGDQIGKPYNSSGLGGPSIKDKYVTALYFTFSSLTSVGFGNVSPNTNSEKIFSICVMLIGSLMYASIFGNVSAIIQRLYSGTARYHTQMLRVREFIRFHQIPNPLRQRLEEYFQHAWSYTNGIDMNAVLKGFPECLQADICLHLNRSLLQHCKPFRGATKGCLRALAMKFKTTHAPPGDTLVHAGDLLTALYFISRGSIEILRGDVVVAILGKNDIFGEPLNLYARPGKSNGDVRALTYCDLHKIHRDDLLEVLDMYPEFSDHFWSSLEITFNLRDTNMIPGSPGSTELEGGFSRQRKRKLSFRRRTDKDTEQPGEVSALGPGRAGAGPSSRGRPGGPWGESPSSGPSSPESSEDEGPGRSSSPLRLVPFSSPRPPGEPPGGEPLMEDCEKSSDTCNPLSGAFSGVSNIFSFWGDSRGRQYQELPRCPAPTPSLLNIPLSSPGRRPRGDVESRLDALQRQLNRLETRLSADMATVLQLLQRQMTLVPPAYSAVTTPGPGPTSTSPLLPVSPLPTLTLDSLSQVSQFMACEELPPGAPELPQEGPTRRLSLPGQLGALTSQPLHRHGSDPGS", "assay": "in vitro", "details": "human", "experimental": "CHO-hERG cells (from Shanghai Institute of Materia Medica, Chinese Academy of Sciences) were cultured in a 175 cm^2 culture flask. When the cell density reached 60% to 80%, the culture medium was removed, the cells were washed once with 7 mL of PBS, and then 3 mL of Detachin was added for cell detachment. After complete cell detachment, 7 mL of culture medium were added for neutralization, the mixture was then centrifuged, the supernatant was aspirated, and another 5 mL of culture medium was added for re-suspension, so as to ensure that the cell density was 2×10^6/mL to 5×10^6/mL.\nThe single-cell giga-seal and the formation of whole-cell mode were both completed automatically by a Q patch instrument. After a whole-cell recording mode was achieved, the cells were clamped at −80 mV, exposed to a front voltage of −50 mV for 50 ms prior to a depolarizing stimulus (5 s, +40 mV), and then repolarized to −50 mV for 5 s, followed by a recovery to −80 mV. This voltage stimulation was applied every 15 s and recorded for 2 minutes, and the extracellular fluid was then administered, followed by a record lasting for 5 minutes. Thereafter, the administration process was started. Starting from the lowest test concentration, the compounds were administered at each test concentration and the process lasted for 2.5 minutes. […] At least 3 cells (n≥3) were tested at each concentration.\n20 mM stock solution of the compound was diluted with the extracellular fluid, and 5 μL of the 20 mM stock solution of the compound was taken, added to 2495 μL of the extracellular fluid, and diluted by 500 times to 40 μM. Thereafter, the resulting mixture was serially and successively diluted by 3 times in an extracellular fluid containing 0.2% DMSO, so as to obtain a final concentration to be tested.\nThe experimental data was analyzed by XLFit software.", "data": [{"smiles": "COc1cc(N)c(Cl)cc1C(=O)NC1CCN(CCCOc2ccc(F)cc2)CC1OC", "note": "(stereo not shown) [Cisapride, reference compound]", "values": [{"measurement": "inhibition at 2.5 min, 40 μM", "value": 89.6, "unit": "%"}]}]}
